The test system of series [1] is mechanical allodynia in STZ-induced DPN rats. Put plainly: Prevention of neuropathic pain in STZ-induced rat model of DPN, paw withdrawal threshold (von Frey filaments). The format is in vivo. The conditions noted are these: prevention protocol; for von Frey, gm mean ± SEM (PWT): PS 8% hydrogel or sulindac 0.7% hydrogel topical 3 times a day from day -2 to day 28, lidocaine 5% cream once 30 min before PWT, PWT on day 28; for effect on PWT compared to vehicle (prevention study): day 28, result in words. An excerpt: DPN was induced via chemically-induced increases in blood glucose in rats, using streptozotocin (STZ).
The animal model corresponds to that used for Example 1, but using a prevention protocol. As in Example 1, the outcome measure, determining the effect of the treatment on the prevention of mechanical allodynia, was the PWT test, using von Frey filaments. The measurements were taken at day −3, before treatment or induction of neuropathic pain associated with DPN, and again at the end of the study period (day 28).
The rats were randomised into treatment groups as follows, all having an average body weight of about 225 g. • 1. Group 1: naïve rats (n=6) • 2. Group 2: STZ only (n=8) • 3. Group 3: STZ plus vehicle (n=8) • 4. Group 4: STZ plus PS 8% (n=8) • 5. […] Group 6: STZ plus lidocaine cream 5% (n=8)
Each treatment group was subjected to a PWT assessment at day −3 in order to determine the baseline of mechanical allodynia. […] For those rats in the lidocaine treatment group, lidocaine cream was applied only once to both hind paws of the rats 30 min before the final PWT measurement on day 28. On day 0, neuropathic pain associated with DPN was induced with the administration of STZ, and the blood glucose was checked on day 3. Four weeks after the administration of STZ, to provide sufficient time to allow the neuropathic pain associated with DPN (manifested as mechanical allodynia) to develop (see the STZ only group in FIG. 5), the rats were subjected to the paw withdrawal threshold test.

The test system is the same in series [2]. Put plainly: Treatment of neuropathic pain in STZ-induced rat model of DPN, paw withdrawal threshold (von Frey filaments). The series is classed as in vivo, Sprague-Dawley rats. The conditions noted are these: for effect on PWT compared to vehicle (treatment study): established DPN, result in words. The procedure:
DPN was induced via chemically-induced increases in blood glucose in rats, using streptozotocin (STZ). This is a well-established model for DPN (see Morrow, Current Protocols in Neuroscience (2004); 29(1): 1-11), in which the STZ, an antibiotic extract from Streptomyces acromogenes, selectively damages the β cells of the pancreas.
Sprague-Dawley rats were fasted for 4-6 hours before being injected intraperitoneally with 45 mg/kg STZ. This was performed for all experimental groups, except the naïve group. In order to prevent hypoglycaemic death, rats received 10% sucrose water as the sole water source for the first 48 hours after injection. In order to ensure only those rats considered diabetic (i.e., having non-fasting plasma glucose levels of >250 mg/dL) were included in the study, blood glucose was measured at 72 hours after the STZ injection.
This delay between STZ injection and treatment allows the establishment of chronic pain (allodynia) associated with peripheral and central sensitisation. PS (as an 8% hydrogel) or vehicle control were administered topically to both hind paws of the rats 3 times a day for 3 weeks starting at week 4 after STZ injection. […] 5% lidocaine cream (a positive control) was applied only once to both hind paws of the rats 30 minutes before measurement of PWT.
The rats were split into 8 study groups, with those in the experimental groups (1-4) having an average body weight of about 225 g, and those in the control groups (5-8) having an average body weight of about 335 g, as follows: • 1. Group 1: naïve rats (n=5) • 2. Group 2: STZ only (n=6) • 3. Group 3: STZ plus vehicle (n=6) • 4. Group 4: STZ plus PS (8% hydrogel) (n=7) • 5. Group 5: STZ plus oral vehicle (n=8) • 6. […] Group 7: STZ plus 5% lidocaine cream (n=8) • 8.
In order to determine the outcome of the treatment, mechanical allodynia was measured using the well-established method of von Frey filaments. In particular, a simplified up-down method for estimating paw withdrawal threshold (PWT) using von Frey filaments was used (as described in Bonin et al., Molecular Pain (2014); 10(26):1-10)). The results of the PWT test are expressed as force applied (gm).

Series [3] in a line: Pharmacokinetics and biodistribution of PS and its metabolites after topical administration to hind paws. As to conditions: for AUC0-24h of PS / Tmax of PS / T1/2 of PS / Cmax: 50 μl per hind paw; for Cmax: read-out: Cmax of PS, mean ± SEM. The procedure: PS 8% ointment was applied topically to each hind paw (50 μl per paw) with gentle rubbing. At 0.5, 1, 3, 5, 12, 18, and 24 h, mice (n=4-5 mice/time point) were euthanized with CO2 inhalation. Blood was drawn immediately after death. Tissues, including paw skin, paw muscle, leg muscle, the sciatic nerve and lumbar DRG bilaterally were dissected quickly, immediately frozen in liquid nitrogen and stored at −80° C. until analyzed.
Following addition of acetonitrile (twice the volume of the homogenate), the mixture was sonicated for 10 min, centrifuged at 13,200 rpm for 15 min, and analyzed by HPLC, as reported (Wen et al., 2019).
Since the metabolism and PK/biodistribution of PS vary depending on its route of administration, we studied both in normal mice in which PS was administered topically to their hind paws, with particular attention to the sciatic nerve and the dorsal root ganglia (DRG) that are affected in DPN.

The mark [4] stands for this setting: treatment protocol from week 4, sulindac 0.7% hydrogel topical 3 times a day for 1 week (PWT week 5), lidocaine 5% cream once 30 min before PWT, pregabalin 10 mg/kg oral once 1 h before PWT.
Setting [5] is: dorsal root ganglia (DRG), normal mice, PS 8% ointment topical.
Setting [6] is: leg muscle, normal mice, PS 8% ointment topical.
[7] abbreviates: paw muscle, normal mice, PS 8% ointment topical.
Where [8] appears, read: paw skin, normal mice, PS 8% ointment topical.
Setting [9] is: sciatic nerve (SN), normal mice, PS 8% ointment topical.

By Cmax is commonly meant the maximum level reached in the sampled fluid or tissue.

Like-named read-outs stand apart in the source and are kept apart here.

As to `CCN(CC)CC(=O)Nc1c(C)cccc1C` [lidocaine], in series [1], the “von Frey, gm mean ± SEM (PWT)” value is reported as 34.3 ± 1.6 gm and the “effect on PWT compared to vehicle (prevention study)” value was “significantly increased the PWT compared to vehicle”. In addition, in series [2], the “effect on PWT compared to vehicle (treatment study)” value is on record as “significant increases in PWT compared to vehicle”. The “PWT, gm Mean ± SEM” value in series [2] (setting [4]) worked out at 26.0 ± 1.8 gm.

`CC(C)C[C@H](CN)CC(=O)O` [pregabalin]: the “effect on PWT compared to vehicle (treatment study)” value in series [2] is on record as “significant increases in PWT compared to vehicle”.

On to `CC1=C(CC(=O)O)c2cc(F)ccc2/C1=C\c1ccc(S(C)(=O)=O)cc1` [sulindac sulfone], for which the “detection as metabolite of PS” value in series [3] (mouse tissues and blood after PS 8% ointment topical, HPLC, limit of quantitation 0.05 μM) is recorded as “detected”.

Turning to `CC1=C(CC(=O)O)c2cc(F)ccc2/C1=C\c1ccc([S+](C)[O-])cc1` (stereo not drawn) [sulindac], in series [1], the “von Frey, gm mean ± SEM (PWT)” value is 27.7 ± 1.4 gm and the “effect on PWT compared to vehicle (prevention study)” value is reported as “no significant effect on PWT compared to the vehicle”. For the same molecule, the “effect on PWT compared to vehicle (treatment study)” value in series [2] is “failed to suppress the reduced PWT caused by STZ”. Further, the “PWT, gm Mean ± SEM” value in series [2] (setting [4]) is given as 23.2 ± 2.6 gm.

In the case of phosphosulindac [PS], in series [1], the “von Frey, gm mean ± SEM (PWT)” value worked out at 33.1 ± 1.6 gm and the “effect on PWT compared to vehicle (prevention study)” value is recorded as “significant increase in PWT compared to vehicle”. Further, the “PS in the systemic circulation” value in series [3] (blood, normal mice, PS 8% ointment topical, limit of quantitation 0.1 μM) is “no PS was detected”. In series [3] (setting [5]), the “AUC0-24h of PS” value turned out to be 4.5 µM·h, the “Tmax of PS” value turned out to be 18 h and the Cmax came out at 0.3 ± 0.1 µM. Moreover, in series [3] (setting [6]), the “AUC0-24h of PS” value amounted to 171.6 µM·h, the “T1/2 of PS” value is listed as 20.6 h, the “Tmax of PS” value came to 0.5 h and the Cmax came out at 35 ± 3.6 µM. For the same molecule, the “Tmax of PS in all tissues with the exception of DRG” value in series [3] (normal mice, PS 8% ointment topical) is 0.5 h. Moreover, in series [3] (setting [7]), the “AUC0-24h of PS” value is 411.2 µM·h, the “T1/2 of PS” value was determined as 11.4 h, the “Tmax of PS” value is on record as 0.5 h and the Cmax came to 102 ± 4.6 µM. Moreover, in series [3] (setting [8]), the “AUC0-24h of PS” value was 1,609.8 μM · h, the “T1/2 of PS” value is given as 16.1 h, the “Tmax of PS” value was 0.5 h and the Cmax amounted to 195 ± 5.3 µM. For the same molecule, the “t1/2 of PS in the skin and the muscles” value in series [3] (range over paw skin, paw muscle, leg muscle, normal mice, PS 8% ointment topical) was in the range of 11.4 to 20.6 h. Besides, in series [3] (setting [9]), the Cmax stood at 0.9 ± 0.1 µM, the “AUC0-24h of PS” value turned out to be 12.0 µM·h, the “T1/2 of PS” value came out at 57.4 h and the “Tmax of PS” value came out at 0.5 h. The “effect on PWT compared to vehicle (treatment study)” value in series [2] is “significant increase in PWT compared to vehicle and STZ”. Besides, the “PWT, gm Mean ± SEM” value in series [2] (treatment protocol, PS 8% hydrogel topically to both hind paws 3 times a day for 3 weeks from week 4 after STZ, PWT at week 7, 30 min after last treatment) was determined as 22.5 ± 2.20 gm.

The values are drawn from US12295963B2, “Treating pain associated with diabetic peripheral neuropathy” (MEDICON PHARMACEUTICALS, INC., priority 2021, dated 2025).
